In article PMC12503276, “A novel TRPV5/6-like channel from a scleractinian coral” (PLOS One, 2025):

Experiments:
PdTRPV5/6-like = biological target: T1, PdTRPV5/6-like (Pocillopora damicornis, UniProt Z9K305B7A5); experiment: outside-out patch clamp, HEK293; assay type: cell-based
T1 construct: full-length ORF, 724 residues, cloned from aquarium coral cDNA into pcDNA3.1, HEK293 transient expression; EGFP on separate plasmid; tetramer
T1 sequence (Z9K305B7A5 1-724): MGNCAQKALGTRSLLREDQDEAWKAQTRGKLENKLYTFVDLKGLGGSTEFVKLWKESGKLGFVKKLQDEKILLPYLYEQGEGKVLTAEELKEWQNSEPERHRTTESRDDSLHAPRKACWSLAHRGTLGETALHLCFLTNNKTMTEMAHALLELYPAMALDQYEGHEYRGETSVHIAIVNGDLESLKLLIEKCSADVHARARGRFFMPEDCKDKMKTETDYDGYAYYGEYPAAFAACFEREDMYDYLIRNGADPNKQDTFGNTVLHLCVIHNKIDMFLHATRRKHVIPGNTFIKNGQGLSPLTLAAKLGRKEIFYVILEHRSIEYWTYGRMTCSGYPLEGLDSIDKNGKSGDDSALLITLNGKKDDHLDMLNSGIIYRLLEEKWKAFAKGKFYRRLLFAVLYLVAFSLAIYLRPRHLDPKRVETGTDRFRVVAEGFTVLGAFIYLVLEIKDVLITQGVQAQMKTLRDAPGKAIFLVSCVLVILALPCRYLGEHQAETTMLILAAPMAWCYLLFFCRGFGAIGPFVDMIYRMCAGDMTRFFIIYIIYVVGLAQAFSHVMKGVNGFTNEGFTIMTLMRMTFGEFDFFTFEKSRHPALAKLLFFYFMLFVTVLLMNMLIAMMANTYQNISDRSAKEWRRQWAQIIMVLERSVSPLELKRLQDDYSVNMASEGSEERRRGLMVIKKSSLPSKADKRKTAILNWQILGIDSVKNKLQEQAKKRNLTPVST

hTRPV5 = biological target: T2, hTRPV5 (Homo sapiens, UniProt Q9NQA5); experiment: outside-out patch clamp, HEK293; assay type: cell-based
T2 construct: gene TRPV5; EGFP on separate plasmid; tetramer
T2 sequence (Q9NQA5 whole entry): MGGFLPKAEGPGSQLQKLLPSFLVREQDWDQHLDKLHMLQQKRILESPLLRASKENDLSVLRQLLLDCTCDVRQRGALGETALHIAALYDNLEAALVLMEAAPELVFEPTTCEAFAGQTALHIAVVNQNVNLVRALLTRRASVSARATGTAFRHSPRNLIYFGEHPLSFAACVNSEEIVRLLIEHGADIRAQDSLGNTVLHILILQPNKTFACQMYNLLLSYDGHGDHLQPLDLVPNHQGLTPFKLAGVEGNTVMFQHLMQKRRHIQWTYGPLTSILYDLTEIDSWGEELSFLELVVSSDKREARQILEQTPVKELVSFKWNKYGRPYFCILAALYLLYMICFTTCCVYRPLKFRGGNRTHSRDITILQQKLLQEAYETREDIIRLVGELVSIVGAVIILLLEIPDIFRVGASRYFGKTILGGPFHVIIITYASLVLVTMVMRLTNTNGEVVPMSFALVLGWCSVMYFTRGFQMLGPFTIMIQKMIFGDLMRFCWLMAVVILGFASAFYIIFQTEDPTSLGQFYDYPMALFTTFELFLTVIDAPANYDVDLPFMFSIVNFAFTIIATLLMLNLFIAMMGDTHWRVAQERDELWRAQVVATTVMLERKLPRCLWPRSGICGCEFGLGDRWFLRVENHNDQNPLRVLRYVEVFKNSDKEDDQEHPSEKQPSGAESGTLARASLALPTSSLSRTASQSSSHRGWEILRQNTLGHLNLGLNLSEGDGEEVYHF

## CC(C)[C@@H]1CC[C@@H](C)C[C@H]1O [(-)-menthol]
PdTRPV5/6-like
  IC50: 120 µM

## Clc1ccc(COC(Cn2ccnc2)c2ccc(Cl)cc2Cl)c(Cl)c1 (centres unmarked) [miconazole]
hTRPV5
  IC50: 0.0512 µM
